Measured values taken from patent US20150105252A1, “SUBSTITUTED PYRAZOLES AS HERBICIDES” (E I DU PONT DE NEMOURS AND COMPANY, priority 2013, published 2015).

How the values were obtained:
speedwell = assay: Test D preemergence; type: in vivo, Veronica persica; conditions: Preemergence, scale 0 to 100
Excerpt: Seeds of plant species selected from bluegrass (annual bluegrass, Poa annua), blackgrass (Alopecurus myosuroides), canarygrass (littleseed canarygrass, Phalaris minor), chickweed (common chickweed, Stellaria media), galium (catchweed bedstraw, Galium aparine), bromegrass, downy (downy bromegrass, Bromus tectorum), field poppy (Papaver rhoeas), field violet (Viola arvensis), foxtail, green (green foxtail, Setaria viridis), deadnettle (henbit deadnettle, Lamium amplexicaule), ryegrass, Italian (Italian ryegrass, Lolium multiflorum), kochia (Kochia scoparia), lambsquarters (Chenopodium album), oilseed rape (Brassica napus), pigweed (redroot pigweed, Amaranthus retroflexus), chamomile (scentless chamomile, Matricaria inodora), speedwell (bird's-eye speedwell, Veronica persica), barley, spring (spring barley, Hordeum vulgare), wheat, spring (spring wheat, Triticum aestivum), buckwheat, wild (wild buckwheat, Polygonum convolvulus), mustard, wild (wild mustard, Sinapis arvensis), oat, wild (wild oat, Avena fatua), radish, wild (wild radish, Raphanus raphanistrum), windgrass (Apera spica-venti), Russian thistle (Salsola kali), barley, winter (winter barley, Hordeum vulgare), and wheat, winter (winter wheat, Triticum aestivum) were planted into a silt loam soil and treated preemergence with test chemicals formulated in a non-phytotoxic solvent mixture which included a surfactant.
At the same time, these species were planted in pots containing Redi-Earth® planting medium (Scotts Company, 14111 Scottslawn Road, Marysville, Ohio 43041) comprising spaghnum peat moss, vermiculite, wetting agent and starter nutrients and treated with postemergence applications of the test chemicals formulated in the same manner. Plants ranged in height from 2 to 18 cm (1- to 4-leaf stage). Treated plants and controls were maintained in a controlled growth environment for 14 to 21 days after which time all species were compared to controls and visually evaluated. Plant response ratings, summarized in Table D, are based on a scale of 0 to 100 where 0 is no effect and 100 is complete control. A dash (-) response means no test result.

chamomile [1] = assay: Test D postemergence; type: in vivo, Matricaria inodora; conditions: scale 0 to 100
Outline: (§1)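 Preemergence: seeds sown in silt loam soil and sprayed with test chemical in non-phytotoxic solvent mixture with surfactant. Postemergence: plants grown in peat/vermiculite medium, sprayed at 2–18 cm (1- to 4-leaf stage). Visual rating versus untreated controls after 14–21 days, 0 (no effect) to 100 (complete control).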

blackgrass = assay: Test D preemergence; type: in vivo, Alopecurus myosuroides; conditions: Preemergence, scale 0 to 100
Outline: as §1

galium = assay: Test D postemergence; type: in vivo, Galium aparine; conditions: scale 0 to 100
Outline: as §1

windgrass = assay: Test D postemergence; type: in vivo, Apera spica-venti; conditions: scale 0 to 100
Outline: as §1

pigweed [2] = assay: Test D postemergence; type: in vivo, Amaranthus retroflexus; conditions: scale 0 to 100
Outline: as §1

pigweed [3] = assay: Test D preemergence; type: in vivo, Amaranthus retroflexus; conditions: Preemergence, scale 0 to 100
Outline: as §1

oat, wild = assay: Test D preemergence; type: in vivo, Avena fatua; conditions: Preemergence, scale 0 to 100
Outline: as §1

chamomile [4] = assay: Test D preemergence; type: in vivo, Matricaria inodora; conditions: Preemergence, scale 0 to 100
Outline: as §1

field violet = assay: Test D postemergence; type: in vivo, Viola arvensis; conditions: scale 0 to 100
Outline: as §1

radish, wild = assay: Test D preemergence; type: in vivo, Raphanus raphanistrum; conditions: Preemergence, scale 0 to 100
Outline: as §1

barley, spring = assay: Test D preemergence; type: in vivo, Hordeum vulgare; conditions: Preemergence, scale 0 to 100
Outline: as §1

barley, winter = assay: Test D preemergence; type: in vivo, Hordeum vulgare; conditions: Preemergence, scale 0 to 100
Outline: as §1

chickweed = assay: Test D preemergence; type: in vivo, Stellaria media; conditions: Preemergence, scale 0 to 100
Outline: as §1

For `CCc1cc(C(=O)NCC(F)(F)F)nn1Cc1ccnc(SC(F)(F)F)c1` [Compound 214], the “Plant response rating, Speedwell” value (speedwell; 62 g ai/ha) was 100, the “Plant response rating, Speedwell” value (speedwell; 125 g ai/ha) was 100 and the “Plant response rating, Speedwell” value (speedwell; 250 g ai/ha) was 100. For the same compound, the “Chamomile plant response rating” value (chamomile [1]; Postemergence, 31 g ai/ha) was 40, the “Chamomile plant response rating” value (chamomile [1]; Postemergence, 125 g ai/ha) was 60 and the “Chamomile plant response rating” value (chamomile [1]; Postemergence, 250 g ai/ha) was 70. For the same compound, the “Chamomile plant response rating” value (chamomile [1]; postemergence, 62 g ai/ha) was 40, the “Plant response rating, Blackgrass” value (blackgrass; 31 g ai/ha) was 35 and the “Plant response rating, Blackgrass” value (blackgrass; 62 g ai/ha) was 75. For the same compound, the “Plant response rating, Blackgrass” value (blackgrass; 125 g ai/ha) was 90, the “Plant response rating, Blackgrass” value (blackgrass; 250 g ai/ha) was 100 and the “Galium plant response rating” value (galium; Postemergence, 31 g ai/ha) was 80. The “Galium plant response rating” value (galium; Postemergence, 125 g ai/ha) was 80, the “Galium plant response rating” value (galium; Postemergence, 250 g ai/ha) was 100 and the “Galium plant response rating” value (galium; postemergence, 62 g ai/ha) was 80. For the same compound, the “Windgrass plant response rating” value (windgrass; Postemergence, 31 g ai/ha) was 20, the “Windgrass plant response rating” value (windgrass; Postemergence, 125 g ai/ha) was 30 and the “Windgrass plant response rating” value (windgrass; Postemergence, 250 g ai/ha) was 40. For the same compound, the “Windgrass plant response rating” value (windgrass; postemergence, 62 g ai/ha) was 20, the “Pigweed plant response rating” value (pigweed [2]; Postemergence, 31 g ai/ha) was 90 and the “Pigweed plant response rating” value (pigweed [2]; Postemergence, 125 g ai/ha) was 90. The “Pigweed plant response rating” value (pigweed [2]; Postemergence, 250 g ai/ha) was 95, the “Pigweed plant response rating” value (pigweed [2]; postemergence, 62 g ai/ha) was 90 and the “Plant response rating, Pigweed” value (pigweed [3]; 62 g ai/ha) was 100. The “Plant response rating, Pigweed” value (pigweed [3]; 125 g ai/ha) was 100, the “Plant response rating, Pigweed” value (pigweed [3]; 250 g ai/ha) was 100 and the “Plant response rating, Oat, Wild” value (oat, wild; 62 g ai/ha) was 20. The “Plant response rating, Oat, Wild” value (oat, wild; 125 g ai/ha) was 70, the “Plant response rating, Oat, Wild” value (oat, wild; 250 g ai/ha) was 95 and the “Plant response rating, Chamomile” value (chamomile [4]; 31 g ai/ha) was 50. The “Plant response rating, Chamomile” value (chamomile [4]; 62 g ai/ha) was 100, the “Plant response rating, Chamomile” value (chamomile [4]; 125 g ai/ha) was 100 and the “Plant response rating, Chamomile” value (chamomile [4]; 250 g ai/ha) was 100. The “Field Violet plant response rating” value (field violet; Postemergence, 31 g ai/ha) was 100, the “Field Violet plant response rating” value (field violet; Postemergence, 125 g ai/ha) was 100 and the “Field Violet plant response rating” value (field violet; Postemergence, 250 g ai/ha) was 100. For the same compound, the “Field Violet plant response rating” value (field violet; postemergence, 62 g ai/ha) was 100, the “Plant response rating, Radish, Wild” value (radish, wild; 62 g ai/ha) was 100 and the “Plant response rating, Radish, Wild” value (radish, wild; 125 g ai/ha) was 100. The “Plant response rating, Radish, Wild” value (radish, wild; 250 g ai/ha) was 100, the “Plant response rating, Barley, Spring” value (barley, spring; 31 g ai/ha) was 10 and the “Plant response rating, Barley, Spring” value (barley, spring; 62 g ai/ha) was 40. For the same compound, the “Plant response rating, Barley, Spring” value (barley, spring; 125 g ai/ha) was 65, the “Plant response rating, Barley, Spring” value (barley, spring; 250 g ai/ha) was 80 and the “Plant response rating, Barley, Winter” value (barley, winter; 31 g ai/ha) was 15. For the same compound, the “Plant response rating, Barley, Winter” value (barley, winter; 62 g ai/ha) was 35, the “Plant response rating, Barley, Winter” value (barley, winter; 125 g ai/ha) was 55 and the “Plant response rating, Barley, Winter” value (barley, winter; 250 g ai/ha) was 65. For the same compound, the “Plant response rating, Chickweed” value (chickweed; 31 g ai/ha) was 90, the “Plant response rating, Chickweed” value (chickweed; 62 g ai/ha) was 75 and the “Plant response rating, Chickweed” value (chickweed; 125 g ai/ha) was 100. For the same compound, the “Plant response rating, Chickweed” value (chickweed; 250 g ai/ha) was 100.

In the case of `CCCc1cc(C(=O)NC(C)C)nn1Cc1cc(C(F)(F)F)nn1C` [Compound 201], the “Plant response rating, Speedwell” value (speedwell; 62 g ai/ha) is reported as 100, the “Plant response rating, Speedwell” value (speedwell; 125 g ai/ha) is reported as 100 and the “Plant response rating, Speedwell” value (speedwell; 250 g ai/ha) is reported as 100. For the same compound, the “Chamomile plant response rating” value (chamomile [1]; Postemergence, 31 g ai/ha) was 35, the “Chamomile plant response rating” value (chamomile [1]; Postemergence, 125 g ai/ha) was 55 and the “Chamomile plant response rating” value (chamomile [1]; Postemergence, 250 g ai/ha) was 65. The “Chamomile plant response rating” value (chamomile [1]; postemergence, 62 g ai/ha) was 35, the “Plant response rating, Blackgrass” value (blackgrass; 31 g ai/ha) was 35 and the “Plant response rating, Blackgrass” value (blackgrass; 62 g ai/ha) was 90. The “Plant response rating, Blackgrass” value (blackgrass; 125 g ai/ha) was 100, the “Plant response rating, Blackgrass” value (blackgrass; 250 g ai/ha) was 100 and the “Galium plant response rating” value (galium; Postemergence, 31 g ai/ha) was 70. For the same compound, the “Galium plant response rating” value (galium; Postemergence, 125 g ai/ha) was 70, the “Galium plant response rating” value (galium; Postemergence, 250 g ai/ha) was 85 and the “Galium plant response rating” value (galium; postemergence, 62 g ai/ha) was 70. For the same compound, the “Windgrass plant response rating” value (windgrass; Postemergence, 31 g ai/ha) was 20, the “Windgrass plant response rating” value (windgrass; Postemergence, 125 g ai/ha) was 30 and the “Windgrass plant response rating” value (windgrass; Postemergence, 250 g ai/ha) was 45. The “Windgrass plant response rating” value (windgrass; postemergence, 62 g ai/ha) was 20, the “Pigweed plant response rating” value (pigweed [2]; Postemergence, 31 g ai/ha) was 70 and the “Pigweed plant response rating” value (pigweed [2]; Postemergence, 125 g ai/ha) was 75. The “Pigweed plant response rating” value (pigweed [2]; Postemergence, 250 g ai/ha) was 80, the “Pigweed plant response rating” value (pigweed [2]; postemergence, 62 g ai/ha) was 70 and the “Plant response rating, Pigweed” value (pigweed [3]; 62 g ai/ha) was 80. For the same compound, the “Plant response rating, Pigweed” value (pigweed [3]; 125 g ai/ha) was 100, the “Plant response rating, Pigweed” value (pigweed [3]; 250 g ai/ha) was 100 and the “Plant response rating, Oat, Wild” value (oat, wild; 62 g ai/ha) was 60. The “Plant response rating, Oat, Wild” value (oat, wild; 125 g ai/ha) was 100, the “Plant response rating, Oat, Wild” value (oat, wild; 250 g ai/ha) was 100 and the “Plant response rating, Chamomile” value (chamomile [4]; 31 g ai/ha) was 50. For the same compound, the “Plant response rating, Chamomile” value (chamomile [4]; 62 g ai/ha) was 100, the “Plant response rating, Chamomile” value (chamomile [4]; 125 g ai/ha) was 100 and the “Plant response rating, Chamomile” value (chamomile [4]; 250 g ai/ha) was 100. The “Field Violet plant response rating” value (field violet; Postemergence, 31 g ai/ha) was 55, the “Field Violet plant response rating” value (field violet; Postemergence, 125 g ai/ha) was 65 and the “Field Violet plant response rating” value (field violet; Postemergence, 250 g ai/ha) was 75. The “Field Violet plant response rating” value (field violet; postemergence, 62 g ai/ha) was 55, the “Plant response rating, Radish, Wild” value (radish, wild; 62 g ai/ha) was 100 and the “Plant response rating, Radish, Wild” value (radish, wild; 125 g ai/ha) was 100. For the same compound, the “Plant response rating, Radish, Wild” value (radish, wild; 250 g ai/ha) was 100, the “Plant response rating, Barley, Spring” value (barley, spring; 31 g ai/ha) was 0 and the “Plant response rating, Barley, Spring” value (barley, spring; 62 g ai/ha) was 20. The “Plant response rating, Barley, Spring” value (barley, spring; 125 g ai/ha) was 65, the “Plant response rating, Barley, Spring” value (barley, spring; 250 g ai/ha) was 75 and the “Plant response rating, Barley, Winter” value (barley, winter; 31 g ai/ha) was 25. The “Plant response rating, Barley, Winter” value (barley, winter; 62 g ai/ha) was 35, the “Plant response rating, Barley, Winter” value (barley, winter; 125 g ai/ha) was 45 and the “Plant response rating, Barley, Winter” value (barley, winter; 250 g ai/ha) was 100. The “Plant response rating, Chickweed” value (chickweed; 31 g ai/ha) was 80, the “Plant response rating, Chickweed” value (chickweed; 62 g ai/ha) was 100 and the “Plant response rating, Chickweed” value (chickweed; 125 g ai/ha) was 100. For the same compound, the “Plant response rating, Chickweed” value (chickweed; 250 g ai/ha) was 100.
